# Experiments:
# [1] = test system: Herpes Simplex Virus type 2 (HSV-2); assay: Test of viral inactivation, ASTM E1052-96 viruses in suspension; assay type: cell-based; settings: 0.04% HOCl aqueous solution; 30 seconds
# [2] = Non-randomized study of skin ulcers, 822 patients; assay type: in vivo, human; settings: 0.046% HOCl aqueous solution
# Protocol: A non-randomized, non-placebo controlled study involving 822 patients with a variety of ulcers was conducted. These patients were treated with HOCl aqueous solution (0.046%) as the only therapeutic intervention and followed the patients for six months to evaluate ulcer closure as a marker of therapeutic success.
# S. pyogenes = assay: Efficacy at 30 seconds (Table 2); assay type: cell-based; settings: 0.01 to 0.05% aqueous solution
# Staphylococcus aureus = assay: Antimicrobial efficacy of HOCl skin cleanser (Table 1); assay type: cell-based; settings: 0.01% HOCl; 30 seconds
# Enterococcus faecalis = assay: as above; assay type: cell-based; settings: 0.01% HOCl; 30 seconds
# [3] = test system: all microorganisms tested; assay: ASTM E2315 Time Kill Assay, summary of Table 3; assay type: cell-based; settings: concentration of 0.046%, 30 seconds
# Protocol: (§1) Table 3. below represents the efficacy of 0.046% aqueous hypochlorous acid solution in the presence of high organic load. ASTM E2315 Time Kill Assay for Antimicrobial Agents. The study was performed in ATS labs in Minnesota recommended by the U.S. FDA's Tentative Final Monograph for OTC Healthcare Antiseptic Drug. […] Additional times were evaluated: 1 minute, 5 minutes, and 10 minutes, all with and without organic soil (Using 10% whole milk and 5% Fetal Bovine Serum). The trend in the efficiency is maintained under the same proportions.
# Bovine Diarrhea virus = assay: Efficacy at 30 seconds (Table 2); assay type: cell-based; settings: 0.01 to 0.05% aqueous solution
# [4] = test system: E. coli Carbapenem Resistant; assay: Efficacy at 30 seconds (Table 2); assay type: cell-based; settings: 0.01 to 0.05% aqueous solution
# Candida albicans [5] = assay: Antimicrobial efficacy of HOCl skin cleanser (Table 1); assay type: cell-based; settings: 0.01% HOCl; 30 seconds
# [6] = Acute Inhalation Toxicity; assay type: in vivo, Young Adult Wistar Rats
# From the text: (§2) Table 5. contains the results of several acute and sub-chronic toxicity tests.
# [7] = test system: Staphylococcus epidermidis; assay: Antimicrobial efficacy of HOCl skin cleanser (Table 1); assay type: cell-based; settings: 0.01% HOCl; 30 seconds
# [8] = Controlled randomized single blind clinical trial in surgical open wounds; assay type: in vivo, human
# Protocol: The biocompatibility of the 0.046% HOCl concentration aqueous solution was tested in a three way controlled and randomized single blind clinical trial. Patients were randomized into three groups (60 patients per group). The antiseptic efficacy and biocompatibility of the test solution vs. povidone-iodine vs. chlorhexidine (Chlorhexidine Gluconate—CHG) in surgical—clean and clean contaminated—open wounds was evaluated in 180 patients admitted to the surgical facilities of Erasmo Meoz Hospital in Cucuta, Colombia.
# Human Papillomavirus = assay: Efficacy at 30 seconds (Table 2); assay type: cell-based; settings: 0.01 to 0.05% aqueous solution
# Enterovirus-71 (EV-71) = assay: Test of viral inactivation, ASTM E1052-96 viruses in suspension; assay type: cell-based; settings: 0.04% HOCl aqueous solution; 30 seconds
# HIV (non-glp) = assay: Antimicrobial efficacy of HOCl skin cleanser (Table 1); assay type: cell-based; settings: 0.01% HOCl; 30 seconds
# Campylobacter rectus = assay: as above; assay type: cell-based; settings: 0.01% HOCl; 30 seconds
# E. coli = assay: Efficacy at 30 seconds (Table 2); settings: 0.01 to 0.05% aqueous solution
# K. pneumoniae - ESBL = assay: ASTM E2315 Time Kill Assay for Antimicrobial Agents; assay type: cell-based; settings: 0.046% HOCl aqueous solution; 30 seconds; high organic load
# Protocol: as §1
# P. mirabilis = assay: as above; assay type: cell-based; settings: 0.046% HOCl aqueous solution; 30 seconds; high organic load
# Protocol: as §1
# S. marcenscens = assay: as above; assay type: cell-based; settings: 0.046% HOCl aqueous solution; 30 seconds; high organic load
# Protocol: as §1
# Candida albicans [9] = assay: as above; assay type: cell-based; settings: 0.046% HOCl aqueous solution; 30 seconds; high organic load
# Protocol: as §1
# Haemophilus influenzae = assay: as above; assay type: cell-based; settings: 0.046% HOCl aqueous solution; 30 seconds; high organic load
# Protocol: as §1
# A. baumanii = assay: as above; assay type: cell-based; settings: 0.046% HOCl aqueous solution; 30 seconds; high organic load
# Protocol: as §1
# E. faecium = assay: as above; assay type: cell-based; settings: 0.046% HOCl aqueous solution; 30 seconds; high organic load
# Protocol: as §1
# K. oxytoca = assay: as above; assay type: cell-based; settings: 0.046% HOCl aqueous solution; 30 seconds; high organic load
# Protocol: as §1
# Klebsiella oxytoca = assay: Antimicrobial efficacy of HOCl skin cleanser (Table 1); assay type: cell-based; settings: 0.01% HOCl; 30 seconds
# Teratogenicity = assay type: in vivo
# From the text: as §2
# [10] = test system: Vesicular Stomatitis Virus (VSV); assay type: cell-based; settings: 0.04% HOCl aqueous solution; 30 seconds
# Enterococcus. faecium = assay: Antimicrobial efficacy of HOCl skin cleanser (Table 1); assay type: cell-based; settings: 0.01% HOCl; 30 seconds
# Acute Dermal Toxicity = assay type: in vivo; settings: Albino New Zealand Rabbits, 0.05% HOCl solution, males and females
# From the text: as §2
# Pseudomona aeruginosa = assay: Antimicrobial efficacy of HOCl skin cleanser (Table 1); assay type: cell-based; settings: 0.01% HOCl; 30 seconds
# Salmonella enteritidis = assay: as above; assay type: cell-based; settings: 0.01% HOCl; 30 seconds
structure (smiles),measurement,setting,value
"OCl [HOCl, hypochlorous acid]",% Reduction,[1],99.9999%
same,Log Reduction,[1],7.53
same,interference with antibiotics administered orally,[2],No interference with antibiotics administered orally
same,local infection rate for all ulcers,[2],Decreased the local infection rate for all ulcers
same,closing index for venous ulcers,[2]; at 6 months,97%
same,closure of mixed ulcers,[2]; even when a surgical procedure was required,≤ 75%
same,recurrence rate,[2]; ulcers,2.7 % a year
same,% Reduction,S. pyogenes,>99.99%
same,Log Reduction,S. pyogenes,>4.97Log10
same,% Reduction,Staphylococcus aureus,99.999%
same,Log Reduction,Staphylococcus aureus,>6.1 Log10
same,% Reduction,Enterococcus faecalis,99.999%
same,Log Reduction,Enterococcus faecalis,>6.5 Log10
same,efficacy,[3],99.999%
same,% Reduction,Bovine Diarrhea virus,99.999%
same,Log Reduction,Bovine Diarrhea virus,>5.35 Log10
same,% Reduction,[4],99.999%
same,Log Reduction,[4],>5.57 Log10
same,% Reduction,Candida albicans [5],99.99%
same,Log Reduction,Candida albicans [5],>5.98 Log10
same,survival after exposure to the test atmosphere,"[6]; Gravimetric Chamber concentration 2.07 mg/L of HOCl, Wistar Rats",Animals All animals survived
same,LC50,"[6]; both sexes, Wistar, rat, in vivo, 2.07 mg/L, male and female rats",> 2.07 µg/mL
same,% Reduction,[7],99.999%
same,Log Reduction,[7],>5.8 Log10
same,infected patients,"[8]; 0.046% HOCl aqueous solution, 60 patients per group, surgical open wounds",no infected patients
same,wound appearance (biocompatibility),"[8]; human, in vivo","define edges, good color and hydrated wound beds"
same,% Reduction,Human Papillomavirus,99.999%
same,Log Reduction,Human Papillomavirus,>5.35 Log10
same,% Reduction,Enterovirus-71 (EV-71),99.998%
same,Log Reduction,Enterovirus-71 (EV-71),4.83
same,% Reduction,HIV (non-glp),99.999%
same,Log Reduction,HIV (non-glp),>6.1 Log10
same,% Reduction,Campylobacter rectus,99.99%
same,Log Reduction,Campylobacter rectus,>5.96 Log10
same,Log Reduction,E. coli,>5.87 Log10
same,% Reduction,K. pneumoniae - ESBL,99.999%
same,Log Reduction,K. pneumoniae - ESBL,>5.76 Log10
same,% Reduction,P. mirabilis,99.999%
same,Log Reduction,P. mirabilis,>5.65 Log10
same,% Reduction,S. marcenscens,99.999%
same,Log Reduction,S. marcenscens,>5.37 Log10
same,% Reduction,Candida albicans [9],99.999%
same,Log Reduction,Candida albicans [9],>5.19 Log10
same,% Reduction,Haemophilus influenzae,>99.99%
same,Log Reduction,Haemophilus influenzae,>4.81 Log10
same,% Reduction,A. baumanii,99.999%
same,Log Reduction,A. baumanii,>6.15 Log10
same,% Reduction,E. faecium,99.999%
same,Log Reduction,E. faecium,>5.32 Log10
same,% Reduction,K. oxytoca,99.999%
same,Log Reduction,K. oxytoca,>5.50 Log10
same,% Reduction,Klebsiella oxytoca,99.99%
same,Log Reduction,Klebsiella oxytoca,>5.50 Log10
same,mortalities,"Teratogenicity; Oral administration of 1000 mg/Kg/day, Females and Pregnant Wistar rats","No mortalities, considered"
same,toxicity assessment,"Teratogenicity; rat, in vivo, po, 1000 mg/kg/day",non-toxic
same,% Reduction,[10],99.9999%
same,Log Reduction,[10],7.66
same,% Reduction,Enterococcus. faecium,99.99%
same,Log Reduction,Enterococcus. faecium,>6.21 Log10
same,Acute Lethal Dose,Acute Dermal Toxicity,> 5000 mg/kg body weight for males
same,% Reduction,Pseudomona aeruginosa,99.99%
same,Log Reduction,Pseudomona aeruginosa,>5.94 Log10
same,% Reduction,Salmonella enteritidis,99.999%
same,Log Reduction,Salmonella enteritidis,>6.4 Log10

# From patent publication US20190125790A1, “USE OF HYPOCHLOROUS ACID AS A TOPICAL ANTIMICROBIAL” (BIIOSMART TECHNOLOGIES LLC, priority 2016, published 2019)
